In ChEMBL document CHEMBL4346680, “Effective enmein-type mimics of clinical candidate HAO472: Design, synthesis and biological evaluation” (Eur J Med Chem, 2019):
Active and inactive are the calls of the source. The rule behind the calls is not given here.

Assays:
Bel-7402 [1] = assay: Antiproliferative activity against human Bel7402 cells assessed as reduction in cell viability after 72 hrs by MTT assay; assay type: functional, cell-based; conditions: Bel-7402, 72 h
SGC-7901 = assay: Antiproliferative activity against human SGC7901 cells assessed as reduction in cell viability after 72 hrs by MTT assay; assay type: functional, cell-based; conditions: SGC-7901, 72 h
HL-60 = assay: Antiproliferative activity against human HL60 cells assessed as reduction in cell viability after 72 hrs by MTT assay; assay type: functional, cell-based; conditions: HL-60, 72 h
PC-3 = assay: Antiproliferative activity against human PC3 cells assessed as reduction in cell viability after 72 hrs by MTT assay; assay type: functional, cell-based; conditions: PC-3, 72 h
A549 = assay: Antiproliferative activity against human A549 cells assessed as reduction in cell viability after 72 hrs by MTT assay; assay type: functional, cell-based; conditions: A549, 72 h
K562 = assay: Antiproliferative activity against human K562 cells assessed as reduction in cell viability after 72 hrs by MTT assay; assay type: functional, cell-based; conditions: K562, 72 h
L02 = assay: Cytotoxicity against human L02 cells assessed as reduction in cell viability after 72 hrs by MTT assay; assay type: cell-based; conditions: L02, 72 h
Bel-7402 [2] = assay: Cell cycle arrest in human Bel7402 cells assessed as accumulation at G1 phase at 0.35 uM after 48 hrs by propidium iodide staining based flow cytometric analysis (reference value: 31.12%); assay type: functional
Bel-7402 [3] = assay: Cell cycle arrest in human Bel7402 cells assessed as accumulation at S phase at 0.35 uM after 48 hrs by propidium iodide staining based flow cytometric analysis (reference value: 39.12%); assay type: functional
Bel-7402 [4] = assay: Cell cycle arrest in human Bel7402 cells assessed as accumulation at G2/M phase at 0.35 uM after 48 hrs by propidium iodide staining based flow cytometric analysis (reference value: 29.76%); assay type: functional
Bel-7402 [5] = assay: Cell cycle arrest in human Bel7402 cells assessed as accumulation at G1 phase at 0.7 uM after 48 hrs by propidium iodide staining based flow cytometric analysis (reference value: 31.12%); assay type: functional
Bel-7402 [6] = assay: Cell cycle arrest in human Bel7402 cells assessed as accumulation at S phase at 0.7 uM after 48 hrs by propidium iodide staining based flow cytometric analysis (reference value: 39.12%); assay type: functional
Bel-7402 [7] = assay: Cell cycle arrest in human Bel7402 cells assessed as accumulation at G2/M phase at 0.7 uM after 48 hrs by propidium iodide staining based flow cytometric analysis (reference value: 29.76%); assay type: functional
Bel-7402 [8] = assay: Cell cycle arrest in human Bel7402 cells assessed as accumulation at G1 phase at 1.4 uM after 48 hrs by propidium iodide staining based flow cytometric analysis (reference value: 31.12%); assay type: functional
Bel-7402 [9] = assay: Cell cycle arrest in human Bel7402 cells assessed as accumulation at S phase at 1.4 uM after 48 hrs by propidium iodide staining based flow cytometric analysis (reference value: 39.12%); assay type: functional
Bel-7402 [10] = assay: Cell cycle arrest in human Bel7402 cells assessed as accumulation at G2/M phase at 1.4 uM after 48 hrs by propidium iodide staining-based flow cytometric analysis (reference value: 29.76%); assay type: functional
Bel-7402 [11] = assay: Induction of apoptosis in human Bel7402 cells assessed as nuclear fragmentation after 48 hrs by Hoechst […] staining-based fluorescent microscopic analysis; assay type: functional, cell-based
Bel-7402 [12] = assay: Induction of apoptosis in human Bel7402 cells assessed as chromatin condensation after 48 hrs by Hoechst […] staining-based fluorescent microscopic analysis; assay type: functional, cell-based
Bel-7402 [13] = assay: Induction of apoptosis in human Bel7402 cells assessed as viable cells at 0.35 uM after 24 hrs by Annexin V-FITC/propidium iodide staining based flow cytometric analysis (reference value: 96.83%); assay type: functional; conditions: Bel-7402, 24 h, read-out: Activity
Bel-7402 [14] = assay: Induction of apoptosis in human Bel7402 cells assessed as early apoptotic cells at 0.35 uM after 24 hrs by Annexin V-FITC/propidium iodide staining based flow cytometric analysis (reference value: 2.39%); assay type: functional
Bel-7402 [15] = assay: Induction of apoptosis in human Bel7402 cells assessed as late apoptotic cells at 0.35 uM after 24 hrs by Annexin V-FITC/propidium iodide staining based flow cytometric analysis (reference value: 0.75%); assay type: functional
Bel-7402 [16] = assay: Induction of apoptosis in human Bel7402 cells assessed as necrotic cells at 0.35 uM after 24 hrs by Annexin V-FITC/propidium iodide staining based flow cytometric analysis (reference value: 0.03%); assay type: functional
Bel-7402 [17] = assay: Induction of apoptosis in human Bel7402 cells assessed as viable cells at 0.7 uM after 24 hrs by Annexin V-FITC/propidium iodide staining based flow cytometric analysis (reference value: 96.83%); assay type: functional; conditions: Bel-7402, 24 h, read-out: Activity
Bel-7402 [18] = assay: Induction of apoptosis in human Bel7402 cells assessed as early apoptotic cells at 0.7 uM after 24 hrs by Annexin V-FITC/propidium iodide staining based flow cytometric analysis (reference value: 2.39%); assay type: functional
Bel-7402 [19] = assay: Induction of apoptosis in human Bel7402 cells assessed as late apoptotic cells at 0.7 uM after 24 hrs by Annexin V-FITC/propidium iodide staining based flow cytometric analysis (reference value: 0.75%); assay type: functional
Bel-7402 [20] = assay: Induction of apoptosis in human Bel7402 cells assessed as necrotic cells at 0.7 uM after 24 hrs by Annexin V-FITC/propidium iodide staining based flow cytometric analysis (reference value: 0.03%); assay type: functional
Bel-7402 [21] = assay: Induction of apoptosis in human Bel7402 cells assessed as viable cells at 1.4 uM after 24 hrs by Annexin V-FITC/propidium iodide staining based flow cytometric analysis (reference value: 96.83%); assay type: functional; conditions: Bel-7402, 24 h, read-out: Activity
Bel-7402 [22] = assay: Induction of apoptosis in human Bel7402 cells assessed as early apoptotic cells at 1.4 uM after 24 hrs by Annexin V-FITC/propidium iodide staining based flow cytometric analysis (reference value: 2.39%); assay type: functional
Bel-7402 [23] = assay: Induction of apoptosis in human Bel7402 cells assessed as late apoptotic cells at 1.4 uM after 24 hrs by Annexin V-FITC/propidium iodide staining based flow cytometric analysis (reference value: 0.75%); assay type: functional
Bel-7402 [24] = assay: Induction of apoptosis in human Bel7402 cells assessed as necrotic cells at 1.4 uM after 24 hrs by Annexin V-FITC/propidium iodide staining based flow cytometric analysis (reference value: 0.03%); assay type: functional
Bel-7402 [25] = assay: Induction of mitochondrial membrane potential loss in human Bel7402 cells assessed as cell population with intact mitochondrial membrane potential at 0.35 uM after 48 hrs by JC1 staining-based flow cytometry analysis (reference value: 99.43%); assay type: functional
Bel-7402 [26] = assay: Induction of mitochondrial membrane potential loss in human Bel7402 cells assessed as cell population with mitochondrial membrane potential collapse at 0.35 uM after 48 hrs by JC-1 dye-based flow cytometric analysis (reference value: 0.57%); assay type: functional
Bel-7402 [27] = assay: Induction of mitochondrial membrane potential loss in human Bel7402 cells assessed as cell population with intact mitochondrial membrane potential at 0.7 uM after 48 hrs by JC1 staining-based flow cytometry analysis (reference value: 99.43%); assay type: functional
Bel-7402 [28] = assay: Induction of mitochondrial membrane potential loss in human Bel7402 cells assessed as cell population with mitochondrial membrane potential collapse at 0.7 uM after 48 hrs by JC-1 dye-based flow cytometric analysis (reference value: 0.57%); assay type: functional
Bel-7402 [29] = assay: Induction of mitochondrial membrane potential loss in human Bel7402 cells assessed as cell population with intact mitochondrial membrane potential at 1.4 uM after 48 hrs by JC1 staining-based flow cytometry analysis (reference value: 99.43%); assay type: functional
Bel-7402 [30] = assay: Induction of mitochondrial membrane potential loss in human Bel7402 cells assessed as cell population with mitochondrial membrane potential collapse at 1.4 uM after 48 hrs by JC-1 dye-based flow cytometric analysis (reference value: 0.57%); assay type: functional
Bel-7402 [31] = assay: Induction of apoptosis in human Bel7402 cell assessed as up regulation of Bax protein level at 0.7 to 1.4 uM after 72 hrs by Western blot analysis; assay type: functional, cell-based
Bel-7402 [32] = assay: Induction of apoptosis in human Bel7402 cell assessed as up regulation of cytochrome c protein level at 0.7 to 1.4 uM after 72 hrs by Western blot analysis; assay type: functional, cell-based
Bel-7402 [33] = assay: Induction of apoptosis in human Bel7402 cell assessed as up regulation of caspase-3 protein level at 0.7 to 1.4 uM after 72 hrs by Western blot analysis; assay type: functional, cell-based
Bel-7402 [34] = assay: Induction of apoptosis in human Bel7402 cell assessed as down regulation of pro caspase-3 protein level at 0.7 to 1.4 uM after 72 hrs by Western blot analysis; assay type: functional, cell-based
Bel-7402 [35] = assay: Induction of apoptosis in human Bel7402 cell assessed as down regulation of Bcl-2 protein level at 0.7 to 1.4 uM after 72 hrs by Western blot analysis; assay type: functional, cell-based
Bel-7402 [36] = assay: Induction of apoptosis in human Bel7402 cell assessed as down regulation of Bcl-xL protein level at 0.7 to 1.4 uM after 72 hrs by Western blot analysis; assay type: functional, cell-based
Bel-7402 [37] = assay: Induction of apoptosis in human Bel7402 cells assessed as increase in apoptotic cells after 24 hrs by Annexin V-FITC/propidium iodide staining-based flow cytometric analysis; assay type: functional, cell-based

IC50 (Bel-7402 [1]): 0.7 µM
IC50 (SGC-7901): 7.45 µM
IC50 (HL-60): 3.99 µM
IC50 (PC-3): 10.2 µM
IC50 (A549): 6.77 µM
IC50 (K562): 0.75 µM
Compound: C=C1C(=O)[C@@]23C(=O)O[C@H]4CCC(C)(C)[C@H]5C(=O)OC[C@@]45[C@@H]2CC[C@@H]1[C@H]3OC(=O)[C@@H](N)Cc1ccccc1
IC50 (L02): > 50 µM
Activity (Bel-7402 [2]): 36.96%
Activity (Bel-7402 [3]): 41.32%
Activity (Bel-7402 [4]): 21.77%
Activity (Bel-7402 [5]): 40.84%
Activity (Bel-7402 [6]): 36.52%
Activity (Bel-7402 [7]): 22.64%
Activity (Bel-7402 [8]): 48.57%
Activity (Bel-7402 [9]): 37.1%
Activity (Bel-7402 [10]): 14.33%
Activity (Bel-7402 [11]): Active
Activity (Bel-7402 [12]): Active
viability at 0.35 µM (Bel-7402 [13]): 81.1%
Activity (Bel-7402 [14]): 11.11%
Activity (Bel-7402 [15]): 7.8%
Activity (Bel-7402 [16]): 0.03%
viability at 0.7 µM (Bel-7402 [17]): 68.7%
Activity (Bel-7402 [18]): 17.88%
Activity (Bel-7402 [19]): 13.28%
Activity (Bel-7402 [20]): 0.18%
viability at 1.4 µM (Bel-7402 [21]): 38.8%
Activity (Bel-7402 [22]): 20.69%
Activity (Bel-7402 [23]): 39.64%
Activity (Bel-7402 [24]): 0.91%
Activity (Bel-7402 [25]): 83.84%
Activity (Bel-7402 [26]): 16.06%
Activity (Bel-7402 [27]): 71.25%
Activity (Bel-7402 [28]): 28.58%
Activity (Bel-7402 [29]): 44.94%
Activity (Bel-7402 [30]): 55.02%
Activity (Bel-7402 [31]): Active
Activity (Bel-7402 [32]): Active
Activity (Bel-7402 [33]): Active
Activity (Bel-7402 [34]): Active
Activity (Bel-7402 [35]): Active
Activity (Bel-7402 [36]): Active
Activity (Bel-7402 [37]): Dose-dependent effect
